# Experiments:
# [1] = system: Staphylococcus aureus; test: Antibacterial activity against Staphylococcus aureus […]; format: functional
# [2] = system: Staphylococcus aureus; test: Antibacterial activity against methicillin-resistant Staphylococcus aureus ATCC 33591; format: functional
# [3] = system: L02; test: Cytotoxicity against human LO2 cells; format: cell-based
# [4] = target: T1, MecA (Staphylococcus aureus) (UniProt Q7DHH4); test: Binding affinity to Staphylococcus aureus PBP2a assessed as association constant by SPR assay
# T1 sequence (whole entry): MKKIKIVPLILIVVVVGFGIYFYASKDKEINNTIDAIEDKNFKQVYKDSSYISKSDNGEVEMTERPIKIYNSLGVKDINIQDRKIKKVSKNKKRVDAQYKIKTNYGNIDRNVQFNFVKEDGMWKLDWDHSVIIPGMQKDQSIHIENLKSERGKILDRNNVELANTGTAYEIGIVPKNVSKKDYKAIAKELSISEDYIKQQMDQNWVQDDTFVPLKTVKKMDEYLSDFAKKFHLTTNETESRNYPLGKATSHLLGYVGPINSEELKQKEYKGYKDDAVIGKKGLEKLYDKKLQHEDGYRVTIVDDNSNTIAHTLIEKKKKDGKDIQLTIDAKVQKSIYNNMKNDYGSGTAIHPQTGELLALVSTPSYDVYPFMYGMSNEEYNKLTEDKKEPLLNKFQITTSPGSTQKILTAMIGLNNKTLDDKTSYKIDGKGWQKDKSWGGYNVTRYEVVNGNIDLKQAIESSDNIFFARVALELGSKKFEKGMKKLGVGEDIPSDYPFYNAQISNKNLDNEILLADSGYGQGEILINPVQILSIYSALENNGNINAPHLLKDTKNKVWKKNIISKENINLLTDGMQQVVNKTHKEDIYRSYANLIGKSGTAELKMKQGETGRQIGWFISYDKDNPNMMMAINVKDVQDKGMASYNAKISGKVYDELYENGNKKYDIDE
# [5] = target: T2, MecA (Staphylococcus aureus, UniProt Q7DHH4); test: Binding affinity to Staphylococcus aureus PBP2a assessed as equilibrium dissociation constant by SPR assay
# T2 sequence (Q7DHH4 whole entry): T1 sequence (whole entry)
# [6] = system: Staphylococcus aureus; test: Antibacterial activity against methicillin-resistant Staphylococcus aureus 01 clinical isolate by broth dilution assay; format: functional
# [7] = system: Staphylococcus aureus; test: Antibacterial activity against methicillin-resistant Staphylococcus aureus 02 clinical isolate by broth dilution assay; format: functional
# [8] = system: Staphylococcus aureus; test: Antibacterial activity against methicillin-resistant Staphylococcus aureus 03 clinical isolate by broth dilution assay; format: functional
# [9] = system: Staphylococcus aureus; test: Antibacterial activity against methicillin-resistant Staphylococcus aureus 04 clinical isolate by broth dilution assay; format: functional
# [10] = system: Staphylococcus aureus; test: Antibacterial activity against methicillin-resistant Staphylococcus aureus 05 clinical isolate by broth dilution assay; format: functional
# [11] = system: Staphylococcus aureus; test: Antibacterial activity against methicillin-resistant Staphylococcus aureus 06 clinical isolate by broth dilution assay; format: functional
# [12] = system: Staphylococcus aureus; test: Antibacterial activity against methicillin-resistant Staphylococcus aureus 07 clinical isolate by broth dilution assay; format: functional
# [13] = system: Staphylococcus aureus; test: Antibacterial activity against methicillin-resistant Staphylococcus aureus 08 clinical isolate by broth dilution assay; format: functional
# [14] = system: Staphylococcus aureus; test: Antibacterial activity against methicillin-resistant Staphylococcus aureus 09 clinical isolate by broth dilution assay; format: functional
# [15] = system: Staphylococcus aureus; test: Antibacterial activity against methicillin-resistant Staphylococcus aureus 10 clinical isolate by broth dilution assay; format: functional
# [16] = system: Staphylococcus aureus; test: Antibacterial activity against methicillin-resistant Staphylococcus aureus 11 clinical isolate by broth dilution assay; format: functional
# [17] = system: Staphylococcus aureus; test: Antibacterial activity against methicillin-resistant Staphylococcus aureus 12 clinical isolate by broth dilution assay; format: functional
# [18] = system: Staphylococcus aureus; test: Antibacterial activity against methicillin-resistant Staphylococcus aureus 13 clinical isolate by broth dilution assay; format: functional
# [19] = system: Staphylococcus aureus; test: Bactericidal activity against methicillin-resistant Staphylococcus aureus 01 clinical isolate by broth dilution assay; format: functional
# [20] = system: Staphylococcus aureus; test: Bactericidal activity against methicillin-resistant Staphylococcus aureus 02 clinical isolate by broth dilution assay; format: functional
# [21] = system: Staphylococcus aureus; test: Bactericidal activity against methicillin-resistant Staphylococcus aureus 03 clinical isolate by broth dilution assay; format: functional
# [22] = system: Staphylococcus aureus; test: Bactericidal activity against methicillin-resistant Staphylococcus aureus 04 clinical isolate by broth dilution assay; format: functional
# [23] = system: Staphylococcus aureus; test: Bactericidal activity against methicillin-resistant Staphylococcus aureus 05 clinical isolate by broth dilution assay; format: functional
# [24] = system: Staphylococcus aureus; test: Bactericidal activity against methicillin-resistant Staphylococcus aureus 06 clinical isolate by broth dilution assay; format: functional
# [25] = system: Staphylococcus aureus; test: Bactericidal activity against methicillin-resistant Staphylococcus aureus 07 clinical isolate by broth dilution assay; format: functional
# [26] = system: Staphylococcus aureus; test: Bactericidal activity against methicillin-resistant Staphylococcus aureus 08 clinical isolate by broth dilution assay; format: functional
# [27] = system: Staphylococcus aureus; test: Bactericidal activity against methicillin-resistant Staphylococcus aureus 09 clinical isolate by broth dilution assay; format: functional
# [28] = system: Staphylococcus aureus; test: Bactericidal activity against methicillin-resistant Staphylococcus aureus 10 clinical isolate by broth dilution assay; format: functional
# [29] = system: Staphylococcus aureus; test: Bactericidal activity against methicillin-resistant Staphylococcus aureus 11 clinical isolate by broth dilution assay; format: functional
# [30] = system: Staphylococcus aureus; test: Bactericidal activity against methicillin-resistant Staphylococcus aureus 12 clinical isolate by broth dilution assay; format: functional
# [31] = system: Staphylococcus aureus; test: Bactericidal activity against methicillin-resistant Staphylococcus aureus 13 clinical isolate by broth dilution assay; format: functional
compound,measurement,setting,value
COc1ccc(CNC(=O)[C@@H](C)Oc2ccc3c(c2)c2cncc4c5cc(OC)c(OC)cc5c(=O)n3c42)c(OC)c1,MIC,[1],64 µg/mL
same,MIC,[2],128 µg/mL
same,IC50,[3],6.4 µM
COc1ccc(-c2cc(=O)oc3c(C)c(OCC(=O)N[C@@H](Cc4c[nH]c5ccc(O)cc45)C(=O)O)ccc23)cc1,MIC,[1],4 µg/mL
same,MIC,[2],4 µg/mL
same,IC50,[3],11.6 µM
same,Ka,[4],5.65 10^5/M/s
same,Kd,[5],0.264 µM
C[C@]12CCC(=O)C=C1CC[C@@H]1[C@H]2CC[C@@]2(C)[C@H]1CC[C@]2(O)C(=O)COC(=O)CCC(=O)N[C@H]1CCCCNC1=O,MIC,[1],4 µg/mL
same,MIC,[2],4 µg/mL
same,IC50,[3],16.9 µM
COc1cc2c(c(OC)c1OC)-c1ccc(NCC(=O)NCCc3c[nH]c4ccccc34)c(=O)cc1[C@@H](NC(C)=O)CC2,MIC,[1],2 µg/mL
same,MIC,[2],4 µg/mL
same,IC50,[3],> 20 µM
same,Ka,[4],3.48 10^5/M/s
same,Kd,[5],0.168 µM
COc1cccc(/C=C2\Oc3cc(OCC(=O)N[C@@H](Cc4c[nH]c5ccccc45)C(=O)O)ccc3C2=O)c1,MIC,[1],4 µg/mL
same,MIC,[2],8 µg/mL
same,IC50,[3],> 20 µM
O=C(C[C@@H]1NC(=O)c2ccccc2NC1=O)NCCc1c[nH]c2ccc(OCc3ccccc3)cc12,MIC,[1],64 µg/mL
same,MIC,[2],32 µg/mL
same,IC50,[3],> 20 µM
Cc1ccc(NC(=O)[C@H](Cc2c[nH]c3ccccc23)NC(=O)C2CCN(C(=O)CNC(=O)OC(C)(C)C)CC2)cc1,MIC,[1],2 µg/mL
same,MIC,[2],2 µg/mL
same,IC50,[3],> 20 µM
same,MIC,[6],2 µg/mL
same,MIC,[7],4 µg/mL
same,MIC,[8],8 µg/mL
same,MIC,[9],4 µg/mL
same,MIC,[10],1 µg/mL
same,MIC,[11],4 µg/mL
same,MIC,[12],4 µg/mL
same,MIC,[13],0.5 µg/mL
same,MIC,[14],16 µg/mL
same,MIC,[15],4 µg/mL
same,MIC,[16],2 µg/mL
same,MIC,[17],8 µg/mL
same,MIC,[18],16 µg/mL
same,MBC,[19],32 µg/mL
same,MBC,[20],64 µg/mL
same,MBC,[21],128 µg/mL
same,MBC,[22],64 µg/mL
same,MBC,[23],8 µg/mL
same,MBC,[24],64 µg/mL
same,MBC,[25],64 µg/mL
same,MBC,[26],32 µg/mL
same,MBC,[27],64 µg/mL
same,MBC,[28],64 µg/mL
same,MBC,[29],128 µg/mL
same,MBC,[30],256 µg/mL
same,MBC,[31],128 µg/mL
same,Ka,[4],3.28 10^5/M/s
same,Kd,[5],0.129 µM
CC(=O)Nc1ccc(NC(=O)COc2cc3c(c4oc(=O)c(C)c(C)c24)CCC(C)(C)O3)cc1,MIC,[1],32 µg/mL
same,MIC,[2],64 µg/mL
same,IC50,[3],> 20 µM
COc1ccc(CCNC(=O)COc2ccc3c(c2)OC2(CCN(C(C)=O)CC2)CC3=O)cc1OC,MIC,[1],16 µg/mL
same,MIC,[2],64 µg/mL
same,IC50,[3],7.8 µM
CN[C@H](CC(C)C)C(=O)N[C@H]1C(=O)N[C@@H](CC(N)=O)C(=O)N[C@H]2C(=O)N[C@H]3C(=O)N[C@H](C(=O)N[C@H](C(=O)O)c4cc(O)cc(O)c4-c4cc3ccc4O)[C@H](O)c3ccc(c(Cl)c3)Oc3cc2cc(c3O[C@@H]2O[C@H](CO)[C@@H](O)[C@H](O)[C@H]2O[C@H]2C[C@](C)(N)[C@H](O)[C@H](C)O2)Oc2ccc(cc2Cl)[C@H]1O [VANCOMYCIN],IC50,[3],> 20 µM
same,MIC,[8],8 µg/mL
same,MIC,[13],8 µg/mL
same,MIC,[16],16 µg/mL
same,MIC,[17],8 µg/mL
same,MBC,[19],32 µg/mL
same,MBC,[20],64 µg/mL
same,MBC,[21],128 µg/mL
same,MBC,[22],128 µg/mL
same,MBC,[23],64 µg/mL
same,MBC,[24],8 µg/mL
same,MBC,[25],32 µg/mL
same,MBC,[26],64 µg/mL
same,MBC,[27],32 µg/mL
same,MBC,[28],128 µg/mL
same,MBC,[29],64 µg/mL
same,MBC,[30],128 µg/mL
same,MBC,[31],64 µg/mL
COc1ccc(NC(=O)[C@H]2Oc3c(c(=O)oc4ccccc34)[C@@H]2c2ccc(CCCN3CCCC3=O)cc2)cc1,MIC,[1],128 µg/mL
same,MIC,[2],64 µg/mL
same,IC50,[3],> 20 µM
same,Ka,[4],2.46 10^4/M/s
same,Kd,[5],86.6 µM
CC[C@H](C)[C@@H](CC(=O)CNC(=O)CCc1c(C)c2cc3oc(C)c(-c4ccccc4)c3c(C)c2oc1=O)C(=O)O,MIC,[1],32 µg/mL
same,MIC,[2],64 µg/mL
same,IC50,[3],> 20 µM

# — ChEMBL document CHEMBL4814045, “Discovery of novel Staphylococcus aureus penicillin binding protein 2a inhibitors by multistep virtual screening and biological evaluation” (Bioorg Med Chem Lett, 2021)
